How the values were obtained:
[1] = In vivo safety evaluation of treated eyes; design: species or system rabbit
From the text: Before laser treatment, the rabbit's eyes were imaged by PAM and OCT (see section above). For laser treatment, anesthetized rabbits were kept on a custom-built stabilization platform. After acquiring the images and locating the opacities (collagen fibers) by OCT, areas in the eyes (4.5×4.5 mm^2) were illuminated with laser pulses (<7 ns; 1.9 J/cm^2) NT-242, Ekspla, Lithuania) of 800 nm (ICG) to destroy the collagen fibers; the step size of the scanning laser was 9 μm, the beam size equaled 20 μm. During the treatment, real-time OCT was active to monitor the position of the collagen fibers. The 4.5×4.5 mm^2 area was laser scanned several times (3-7 times) until the collagen fibers were completely destroyed. After the laser treatment, PAM and fundus images were performed to evaluate the potential damage of retinal vessels. Also, rabbit's vital signs were monitored and recorded until the animals fully recovered from anaesthesia.
Treated eyes were ophthalmologically evaluated immediately after the laser treatment and followed up for 1 month. Anterior segment structures such as the eyelids, iris, conjunctiva, cornea, anterior chamber and lens were comprehensively examined using slit lamp bio-microscopy (SL120, Carl Zeiss, Germany). In addition, posterior segment structures (i.e., the vitreous, optic nerve and retina) were assessed using a contact fundus lens (Volk Optical Inc, Mentor, Ohio, USA).

collagen fibers = target: T1, collagen fibers (Rattus norvegicus, UniProt P02454+P02466); assay: In vivo binding of intravitreally injected ICG to collagen fibers (PAM/OCT/fundus imaging); design: species or system rabbit
T1 construct: host or cells: exogenous fibres injected into the vitreous of New Zealand White rabbits
T1 sequence (P02454 152-1207 limits assumed): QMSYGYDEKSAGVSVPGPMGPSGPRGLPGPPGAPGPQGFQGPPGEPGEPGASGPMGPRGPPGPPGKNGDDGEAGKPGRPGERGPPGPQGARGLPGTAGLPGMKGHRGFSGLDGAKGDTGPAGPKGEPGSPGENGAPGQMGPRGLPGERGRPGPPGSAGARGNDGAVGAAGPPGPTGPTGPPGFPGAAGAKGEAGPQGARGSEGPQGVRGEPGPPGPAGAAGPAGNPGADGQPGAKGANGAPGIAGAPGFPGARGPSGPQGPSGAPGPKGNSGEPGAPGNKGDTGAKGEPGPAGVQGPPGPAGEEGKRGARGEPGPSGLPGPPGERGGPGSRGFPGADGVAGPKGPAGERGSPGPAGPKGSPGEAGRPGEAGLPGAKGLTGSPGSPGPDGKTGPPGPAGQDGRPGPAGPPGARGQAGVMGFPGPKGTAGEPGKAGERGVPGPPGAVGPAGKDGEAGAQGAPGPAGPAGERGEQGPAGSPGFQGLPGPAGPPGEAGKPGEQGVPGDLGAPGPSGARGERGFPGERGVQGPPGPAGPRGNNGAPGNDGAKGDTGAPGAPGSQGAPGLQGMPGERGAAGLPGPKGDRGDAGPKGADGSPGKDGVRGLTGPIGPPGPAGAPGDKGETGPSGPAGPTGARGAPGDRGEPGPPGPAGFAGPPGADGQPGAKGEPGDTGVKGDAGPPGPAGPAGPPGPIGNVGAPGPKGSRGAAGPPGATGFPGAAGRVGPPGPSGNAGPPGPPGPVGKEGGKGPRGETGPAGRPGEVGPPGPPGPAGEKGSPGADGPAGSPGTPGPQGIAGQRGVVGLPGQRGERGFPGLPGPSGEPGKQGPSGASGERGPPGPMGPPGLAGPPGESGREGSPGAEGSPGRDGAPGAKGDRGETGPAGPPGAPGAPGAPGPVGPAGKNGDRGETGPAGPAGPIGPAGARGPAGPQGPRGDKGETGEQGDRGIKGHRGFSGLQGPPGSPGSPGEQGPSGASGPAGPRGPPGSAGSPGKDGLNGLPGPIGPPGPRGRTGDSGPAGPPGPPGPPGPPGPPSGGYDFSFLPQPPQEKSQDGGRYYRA
T1 sequence (P02466 86-1125 limits assumed): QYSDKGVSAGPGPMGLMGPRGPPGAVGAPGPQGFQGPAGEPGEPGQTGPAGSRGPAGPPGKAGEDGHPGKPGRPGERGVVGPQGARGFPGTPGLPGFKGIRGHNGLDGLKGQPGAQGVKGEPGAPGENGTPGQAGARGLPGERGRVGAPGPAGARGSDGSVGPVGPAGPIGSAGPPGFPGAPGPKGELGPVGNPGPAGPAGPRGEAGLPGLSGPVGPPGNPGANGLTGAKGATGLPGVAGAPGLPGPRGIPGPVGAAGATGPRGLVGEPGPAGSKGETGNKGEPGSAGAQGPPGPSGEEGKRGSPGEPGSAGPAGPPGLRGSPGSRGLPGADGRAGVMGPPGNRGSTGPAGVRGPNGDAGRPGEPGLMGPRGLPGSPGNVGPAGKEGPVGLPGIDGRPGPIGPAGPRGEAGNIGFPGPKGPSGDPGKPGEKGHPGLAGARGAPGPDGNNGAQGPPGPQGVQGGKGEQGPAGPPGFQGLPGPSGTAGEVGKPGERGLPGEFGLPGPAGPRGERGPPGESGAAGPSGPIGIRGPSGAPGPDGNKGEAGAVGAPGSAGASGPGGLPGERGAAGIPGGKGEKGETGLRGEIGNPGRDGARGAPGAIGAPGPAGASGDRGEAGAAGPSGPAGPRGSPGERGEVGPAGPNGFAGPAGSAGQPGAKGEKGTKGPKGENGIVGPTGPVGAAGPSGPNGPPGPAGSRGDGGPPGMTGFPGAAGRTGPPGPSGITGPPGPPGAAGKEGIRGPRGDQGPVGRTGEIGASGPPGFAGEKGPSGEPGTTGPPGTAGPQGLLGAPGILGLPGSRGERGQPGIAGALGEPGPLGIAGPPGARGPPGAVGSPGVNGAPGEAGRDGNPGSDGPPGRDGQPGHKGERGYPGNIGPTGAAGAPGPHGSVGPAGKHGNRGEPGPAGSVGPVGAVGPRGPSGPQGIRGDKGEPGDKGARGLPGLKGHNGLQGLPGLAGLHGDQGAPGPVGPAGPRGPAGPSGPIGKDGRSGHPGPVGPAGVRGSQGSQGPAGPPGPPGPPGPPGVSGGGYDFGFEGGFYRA
From the text: A total of 24 New Zealand White rabbits (age 3-6 months; weight 2.45-3.15 kg; both genders) were used. The rabbits were randomly divided into 7 groups: a control group A treated with laser only (n=3), group B received an intravitreal (IVIT) injection of ICG (n=9), group C received an IVIT injection of ICG labeled collagen fibers (n=3), group D was IVIT injected with collagen fibers followed by an IVIT injection of ICG (n=3), group E was IVIT injected with HA-AuNPs labeled floaters (n=3), and group F was IVIT injected with floaters followed by an IVIT injection of HA-AuNPs (n=3). During the in vivo experiments, animal conditions such as mucous membrane color, heart rate, body heat, and respiratory rate were monitored every 15 minutes. […]
First, to visualize the retina of the rabbit eyes, a plastic contact lens was placed on the cornea. […] The position of the fibers was monitored by OCT so that the intravitreal injection of ICG could be performed close the area where the fibers were located. […]
The rabbits were monitored one minute after intravitreal injection of the collagen fibers and at day 4 post intravitreal injection of ICG. […] The rabbit eyes were assessed by color fundus photography, fluorescence imaging, optical coherence tomography (OCT) and photoacoustic microscopy (PAM), as discussed below. […]

[2] = eyes treated with laser with ICG

Question: For `CC1(C)C(/C=C/C=C/C=C/C=C2\N(CCCCS(=O)(=O)O)c3ccc4ccccc4c3C2(C)C)=[N+](CCCCS(=O)(=O)[O-])c2ccc3ccccc3c21` [ICG, Indocyanine Green], which “anterior segment 30 days post treatment” value ([1]; 30 days post treatment) is on record?
Answer: normal corneas, eyelids, anterior chamber, conjunctiva and transparent lenses

Question: What about the “anterior segment, visual inspection” value [1, 2] of the same compound?
Answer: normal corneas, eyelids, anterior chamber, conjunctiva, and transparent lens

Question: And the “posterior segment, color fundus imaging” value [1, 2]?
Answer: no significant changes or injuries in the posterior segment structure

Question: What about the “retinal layers, B-scan OCT” value ([1]; post laser treatment) of the same compound?
Answer: did not indicate structural disorganization in the retinal layers

Question: What about the “reaching and binding of collagen fibers in vivo” value (collagen fibers; IVIT 1.25 mg/mL, 5 days after fiber injection) of the same compound?
Answer: could reach and bind the collagen fibers

Question: And the “lowest concentration at which binding to collagen fibers was still observed in vivo” value (collagen fibers; intravitreal injection)?
Answer: 0.625 mg/mL
